Data on 18 compounds can be found in US10538498B2, “1,3,4-oxadiazole sulfonamide derivative compounds as histone deacetylase 6 inhibitor, and the pharmaceutical composition comprising the same” (Chong Kun Dang Pharmaceutical Corp., priority 2015, dated 2020).

In one test the target is T1, human recombinant HDAC1 (Homo sapiens, UniProt Q13547).
T1 construct: purchased Enzo Life Science BML-SE456
Kind of test: HDAC1 enzyme activity inhibition assay (HDAC Fluorimetric Drug Discovery Kit). As to conditions: 0.3 μg enzyme, 10 μM substrate, 30° C., 60 minutes. It is filed as biochemical. The method, then:
In order to examine the HDAC6 selectivity of the compounds of formula I of the present invention by HDAC1 and HDAC6 enzymatic activity inhibition assays, an experiment was performed using a conventional substance as a control.
HDAC enzyme activity was measured using a HDAC Fluorimetric Drug Discovery Kit (BML-AK511, 516, Enzo Life Science). For the HDAC1 enzyme activity test, human recombinant HDAC1 (BML-SE456) was used as an enzyme source, and Fluor de Lys®-“SIRT1 (BNL-KI177) was used as a substrate. A 5-fold dilution of the compound was seeded into a 96-well plate, and then 0.3 μg of the enzyme and 10 μM of the substrate were added to each well of the plate and allowed to react at 30° C. for 60 minutes. Then, Fluor de Lys®-Developer II (BML-KI176) was added thereto and allowed to react for 30 minutes, after which the fluorescence value (Ex 360, Em 460) was measured using a multi-plate reader (Flexstation 3, Molecular Device). The HDAC6 enzyme was tested using human recombinant HDAC6 (382180) (Calbiochem) according to the same protocol as the HDAC1 enzyme activity test method. Based on the resulting values, each IC50 value was calculated using GraphPad Prism4.0 program.

The next test addresses T2, human recombinant HDAC6 (Homo sapiens, UniProt Q9UBN7).
T2 construct: purchased Calbiochem 382180
T2 sequence (Q9UBN7 1-1215): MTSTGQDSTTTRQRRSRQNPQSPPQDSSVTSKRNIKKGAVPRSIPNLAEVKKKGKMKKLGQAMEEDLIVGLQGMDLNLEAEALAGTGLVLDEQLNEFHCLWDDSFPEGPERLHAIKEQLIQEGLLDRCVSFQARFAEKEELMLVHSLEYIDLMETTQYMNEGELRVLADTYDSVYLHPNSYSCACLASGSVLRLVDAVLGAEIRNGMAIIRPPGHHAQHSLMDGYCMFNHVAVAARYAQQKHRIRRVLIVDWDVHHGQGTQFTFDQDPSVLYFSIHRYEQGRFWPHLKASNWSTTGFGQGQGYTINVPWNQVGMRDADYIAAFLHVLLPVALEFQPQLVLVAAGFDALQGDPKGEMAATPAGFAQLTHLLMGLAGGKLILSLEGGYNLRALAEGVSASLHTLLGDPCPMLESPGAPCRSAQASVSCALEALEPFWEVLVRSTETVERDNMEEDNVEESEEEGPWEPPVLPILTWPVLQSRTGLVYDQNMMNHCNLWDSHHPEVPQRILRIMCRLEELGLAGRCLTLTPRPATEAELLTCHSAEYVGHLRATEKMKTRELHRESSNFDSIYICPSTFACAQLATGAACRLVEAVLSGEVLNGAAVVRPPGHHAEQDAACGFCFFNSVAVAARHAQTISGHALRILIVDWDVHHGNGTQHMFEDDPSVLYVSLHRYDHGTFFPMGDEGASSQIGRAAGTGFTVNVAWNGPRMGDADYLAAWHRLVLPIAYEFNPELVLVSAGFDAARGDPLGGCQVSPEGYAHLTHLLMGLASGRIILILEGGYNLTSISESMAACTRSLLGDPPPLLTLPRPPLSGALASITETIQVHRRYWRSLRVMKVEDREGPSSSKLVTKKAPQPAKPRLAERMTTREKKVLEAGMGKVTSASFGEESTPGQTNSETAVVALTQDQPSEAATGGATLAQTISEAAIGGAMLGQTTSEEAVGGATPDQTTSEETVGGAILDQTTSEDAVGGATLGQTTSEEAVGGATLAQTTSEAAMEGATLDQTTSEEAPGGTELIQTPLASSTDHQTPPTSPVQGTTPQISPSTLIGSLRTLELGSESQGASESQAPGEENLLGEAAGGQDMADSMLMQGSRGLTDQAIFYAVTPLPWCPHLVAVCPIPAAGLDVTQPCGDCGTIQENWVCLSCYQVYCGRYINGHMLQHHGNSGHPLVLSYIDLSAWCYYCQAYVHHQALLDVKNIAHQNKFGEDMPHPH
Put plainly: HDAC6 enzyme activity inhibition assay (HDAC Fluorimetric Drug Discovery Kit). It is filed as biochemical. As to conditions: for HDAC6 selectivity (fold): HDAC1 vs HDAC6; for pIC50: same protocol as the HDAC1 enzyme activity test. The procedure, abridged:
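IC50s derived from fluorescence (Ex 360, Em 460) read after a 30-min developer step. Beforehand, compounds in 5-fold dilution series reacted 60 min at 30° C with 0.3 μg human recombinant enzyme and 10 μM Fluor de Lys-SIRT1 substrate.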

pIC50: −log10 of the molar value.

T1 sequence (Q13547 whole entry): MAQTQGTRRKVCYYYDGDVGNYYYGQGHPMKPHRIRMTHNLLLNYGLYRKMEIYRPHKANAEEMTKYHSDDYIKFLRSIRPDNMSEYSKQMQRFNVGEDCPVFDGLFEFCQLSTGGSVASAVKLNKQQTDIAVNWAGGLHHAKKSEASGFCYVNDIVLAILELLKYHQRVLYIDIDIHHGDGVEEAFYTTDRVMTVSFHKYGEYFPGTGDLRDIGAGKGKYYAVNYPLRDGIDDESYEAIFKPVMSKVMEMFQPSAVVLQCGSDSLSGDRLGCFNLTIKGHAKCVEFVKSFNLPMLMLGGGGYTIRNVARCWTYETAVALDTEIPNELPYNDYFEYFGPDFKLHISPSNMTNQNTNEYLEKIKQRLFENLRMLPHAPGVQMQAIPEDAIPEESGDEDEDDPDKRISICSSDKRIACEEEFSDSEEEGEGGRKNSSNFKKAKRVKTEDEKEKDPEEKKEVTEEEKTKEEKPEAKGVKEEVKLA

Regarding `O=S(=O)(CCCO)N(Cc1ccc(-c2nnc(C(F)F)o2)cc1)c1ccccc1` [Compound 11708, N-(4-(5-(difluoromethyl)-1,3,4-oxadiazol-2-yl)benzyl)-3-hydroxy-N-phenylpropane-1-sulfonamide], the pIC50 at human recombinant HDAC1 is 4.19. Also, on human recombinant HDAC6, the “HDAC6 selectivity (fold)” value is on record as 837 fold and the pIC50 was 7.11.

As to `CCn1ncc2ccc(N(Cc3ccc(-c4nnc(C(F)F)o4)cc3)S(C)(=O)=O)cc21` [Compound 11743, N-(4-(5-(difluoromethyl)-1,3,4-oxadiazol-2-yl)benzyl)-N-(1-ethyl-1H-indazol-6-yl)methanesulfonamide], on human recombinant HDAC6, the “HDAC6 selectivity (fold)” value is given as 1466 fold and the pIC50 is 7.17.

On to `CCS(=O)(=O)N(Cc1ccc(-c2nnc(C(F)F)o2)cn1)c1ccccc1` [Compound 11412, N-((5-(5-(difluoromethyl)-1,3,4-oxadiazol-2-yl)pyridin-2-yl)methyl)-N-phenylethanesulfonamide], for which, at human recombinant HDAC6, the “HDAC6 selectivity (fold)” value is recorded as 8333 fold and the pIC50 was 7.92.

`O=C(CN1CCN(CCS(=O)(=O)N(Cc2ccc(-c3nnc(C(F)F)o3)cc2)c2ccccc2)CC1)N1CCOCC1` [Compound 11751, N-(4-(5-(difluoromethyl)-1,3,4-oxadiazol-2-yl)benzyl)-2-(4-(2-morpholino-2-oxoethyl)piperazin-1-yl)-N-phenylethane-1-sulfonamide]: on human recombinant HDAC6, the “HDAC6 selectivity (fold)” value was 1170 fold and the pIC50 was 7.07.

With `CCS(=O)(=O)N(Cc1ccc(-c2nnc(C(F)F)o2)cn1)c1cccc2c1CN(C)C2` [Compound 11712, N-((5-(5-(difluoromethyl)-1,3,4-oxadiazol-2-yl)pyridin-2-yl)methyl)-N-(2-methylisoindolin-4-yl)ethanesulfonamide], on human recombinant HDAC6, the “HDAC6 selectivity (fold)” value is 264 fold and the pIC50 is 6.42.

For `COC(=O)CS(=O)(=O)N(Cc1ccc(-c2nnc(C(F)F)o2)cc1F)c1ccccc1` [Compound 11231, methyl 2-(N-(4-(5-(difluoromethyl)-1,3,4-oxadiazol-2-yl)-2-fluorobenzyl)-N-phenylsulfamoyl)acetate], on human recombinant HDAC6, the “HDAC6 selectivity (fold)” value worked out at 4545 fold and the pIC50 is 7.66.

In the case of `O=S(=O)(CCN1CCN(C/C=C/c2ccccc2)CC1)N(Cc1ccc(-c2nnc(C(F)F)o2)cc1)c1ccccc1` [Compound 11773, 2-(4-cinnamylpiperazin-1-yl)-N-(4-(5-(difluoromethyl)-1,3,4-oxadiazol-2-yl)benzyl)-N-phenylethane-1-sulfonamide], at human recombinant HDAC6, the “HDAC6 selectivity (fold)” value turned out to be 370 fold and the pIC50 was 6.57.

`O=S(=O)(CCN1CC[C@@H](CO)C1)N(Cc1ccc(-c2nnc(C(F)F)o2)cc1)c1ccccc1` [Compound 11805, (R)—N-(4-(5-(difluoromethyl)-1,3,4-oxadiazol-2-yl)benzyl)-2-(3-(hydroxymethyl)pyrrolidin-1-yl)-N-phenylethane-1-sulfonamide]: on human recombinant HDAC6, the “HDAC6 selectivity (fold)” value stood at 3021 fold and the pIC50 is 7.48.

On to `O=S(=O)(CCn1cnc(CO)c1)N(Cc1ccc(-c2nnc(C(F)F)o2)cc1)c1ccccc1` [Compound 11808, N-(4-(5-(difluoromethyl)-1,3,4-oxadiazol-2-yl)benzyl)-2-(4-(hydroxymethyl)-1H-imidazol-1-yl)-N-phenylethane-1-sulfonamide], for which, at human recombinant HDAC6, the “HDAC6 selectivity (fold)” value is given as 2881 fold and the pIC50 was 7.46.

Regarding `O=S(=O)(CCCN1CCC(F)(F)C1)N(Cc1ccc(-c2nnc(C(F)F)o2)cn1)c1ccccc1` [Compound 11719, N-((5-(5-(difluoromethyl)-1,3,4-oxadiazol-2-yl)pyridin-2-yl)methyl)-3-(3,3-difluoropyrrolidin-1-yl)-N-phenylpropane-1-sulfonamide], on human recombinant HDAC6, the “HDAC6 selectivity (fold)” value is 1177 fold and the negative logarithm of the IC50 (pIC50) is 7.07.

As for `O=S(=O)(C1CCN(C2COC2)CC1)N(Cc1ccc(-c2nnc(C(F)F)o2)cc1)c1cccc(Cl)c1` [Compound 11681, N-(3-chlorophenyl)-N-(4-(5-(difluoromethyl)-1,3,4-oxadiazol-2-yl)benzyl)-1-(oxetan-3-yl)piperidine-4-sulfonamide], at human recombinant HDAC6, the “HDAC6 selectivity (fold)” value was determined as 6667 fold and the pIC50 was 7.82.

With `CS(=O)(=O)N(Cc1ccc(-c2nnc(C(F)F)o2)cc1F)c1cncnc1` [Compound 11195, N-(4-(5-(difluoromethyl)-1,3,4-oxadiazol-2-yl)-2-fluorobenzyl)-N-(pyrimidin-5-yl)methanesulfonamide], on human recombinant HDAC6, the “HDAC6 selectivity (fold)” value stood at 1563 fold and the pIC50 was 7.19.

As for `O=C(CO)N1CC(N2CCC(S(=O)(=O)N(Cc3ccc(-c4nnc(C(F)F)o4)cc3)c3cccc(Cl)c3)CC2)C1` [Compound 11836, N-(3-chlorophenyl)-N-(4-(5-(difluoromethyl)-1,3,4-oxadiazol-2-yl)benzyl)-1-(1-(2-hydroxyacetyl)azetidin-3-yl)piperidine-4-sulfonamide], at human recombinant HDAC6, the “HDAC6 selectivity (fold)” value is given as 3147 fold and the pIC50 is 7.50.

In the case of `O=S(=O)(CCN1CCN(c2ccccn2)CC1)N(Cc1ccc(-c2nnc(C(F)F)o2)cc1)c1ccccc1` [Compound 11767, N-(4-(5-(difluoromethyl)-1,3,4-oxadiazol-2-yl)benzyl)-N-phenyl-2-(4-(pyridin-2-yl)piperazin-1-yl)ethane-1-sulfonamide], on human recombinant HDAC6, the “HDAC6 selectivity (fold)” value stood at 844 fold and the pIC50 is 6.93.

`CCS(=O)(=O)N(Cc1ccc(-c2nnc(C(F)F)o2)cc1F)c1cccc2cnn(C)c12` [Compound 11522, N-(4-(5-(difluoromethyl)-1,3,4-oxadiazol-2-yl)-2-fluorobenzyl)-N-(1-methyl-1H-indazol-7-yl)ethanesulfonamide]: at human recombinant HDAC6, the “HDAC6 selectivity (fold)” value came out at 4167 fold and the pIC50 was 7.62.

As for `CS(=O)(=O)N(Cc1ccc(-c2nnc(C(F)(F)F)o2)cc1F)c1ccc(Br)cc1` [Compound 11277, N-(4-bromophenyl)-N-(2-fluoro-4-(5-(trifluoromethyl)-1,3,4-oxadiazol-2-yl)benzyl)methanesulfonamide], on human recombinant HDAC6, the “HDAC6 selectivity (fold)” value worked out at 535 fold and the negative logarithm of the IC50 (pIC50) is 6.73.

Take `CCN1CC(N2CCC(S(=O)(=O)N(Cc3ccc(-c4nnc(C(F)F)o4)cc3)c3cccc(Cl)c3)CC2)C1` [Compound 11777, N-(3-chlorophenyl)-N-(4-(5-(difluoromethyl)-1,3,4-oxadiazol-2-yl)benzyl)-1-(1-ethylazetidin-3-yl)piperidine-4-sulfonamide]: on human recombinant HDAC6, the “HDAC6 selectivity (fold)” value was determined as 3472 fold and the pIC50 was 7.54.

Consider `CS(=O)(=O)N(Cc1ccc(-c2nnc(C(F)F)o2)cc1F)c1ccc2ncsc2c1` [Compound 11775, N-(benzo[d]thiazol-6-yl)-N-(4-(5-(difluoromethyl)-1,3,4-oxadiazol-2-yl)-2-fluorobenzyl)methanesulfonamide], for which, on human recombinant HDAC6, the “HDAC6 selectivity (fold)” value is 2906 fold and the pIC50 is 7.46.
